The source of these data is patent US8933235B2, “Pyridinedione carboxamide inhibitors of endothelial lipase” (Bristol-Myers Squibb Company, priority 2011, dated 2015).

The target of the assay is T1, endothelial lipase (EL) (Homo sapiens, UniProt Q9Y5X9).
T1 construct: Conditioned media obtained from HT-1080 cells, which were transformed by RAGE technology (Athersys) to overexpress endogenous EL; endogenous in cells; conditioned medium used as the enzyme source
T1 sequence (Q9Y5X9 21-500): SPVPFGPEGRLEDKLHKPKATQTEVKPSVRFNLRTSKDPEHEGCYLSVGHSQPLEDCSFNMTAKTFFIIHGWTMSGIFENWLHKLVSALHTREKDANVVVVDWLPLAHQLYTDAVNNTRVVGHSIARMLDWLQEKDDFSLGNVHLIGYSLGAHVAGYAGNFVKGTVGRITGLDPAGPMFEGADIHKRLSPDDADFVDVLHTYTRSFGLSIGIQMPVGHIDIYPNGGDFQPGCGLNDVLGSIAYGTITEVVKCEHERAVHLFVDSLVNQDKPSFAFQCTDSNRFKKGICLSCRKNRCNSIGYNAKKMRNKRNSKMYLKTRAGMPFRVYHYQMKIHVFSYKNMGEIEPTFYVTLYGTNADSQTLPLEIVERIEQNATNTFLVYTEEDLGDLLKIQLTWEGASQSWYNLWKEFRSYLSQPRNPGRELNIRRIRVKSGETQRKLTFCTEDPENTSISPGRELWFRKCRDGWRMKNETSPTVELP
As to the kind of experiment: Endothelial lipase (EL) enzymatic assay with fluorescent substrate A10070 in DMPG vesicles. Type of assay: biochemical. The settings on record: conditioned media from HT-1080 cells overexpressing endogenous EL; 20 min preincubation at 37° C.; read-out: HLE_EL_CRC IC50. Here is the method:
Endothelial lipase activity was measured using a fluorescent substrate, A10070, (Invitrogen, CA) doped into an artificial vesicle containing DMPG (Avanti Polar Lipids) as the excipient. Vesicles were prepared by combining 285 uL of 1 mM DMPG in a 1:1 mixture of MeOH and CHCl3 with 15 uL of 1 mM A10070 in a 1:1 mixture of MeOH and CHCl3. The mixture was dried under nitrogen and resuspended in 150 uL of 50 mM HEPES pH 8.0 buffer containing 100 mM NaCl and 0.2 mM EDTA. The sample was allowed to sit at rt for 15 min and then was sonicated 3×4 mins on ice with a Branson Sonicator using duty cycle 1. This preparation provides vesicles with a mole fraction of 0.05 for the FRET substrate.
The enzymatic assay was measured using white, opaque 96-well half area plates. Each well contained 60 uL of assay buffer (50 mM HEPES pH 8.0, 50 mM NaCl and 1 mM CaCl2) and 2 ul of a DMSO solution containing compound of interest. Conditioned media obtained from HT-1080 cells, which were transformed by RAGE technology (Athersys) to overexpress endogenous EL, was added and the reaction was allowed to incubate for 20 min at 37° C. with gentle agitation. The reaction was started by the addition of 20 uL of a 1:4 dilution of vesicles. The final total reaction volume was 100 uL. The reaction rates were measured on a Gemini plate reader with an excitation wavelength of 488 nm and a emission of 530 nm. Readings were taken every 20 seconds for 10 min with agitation between each reading. The slope of the linear portion of the readout was used to calculate the rate of the reaction.

Each structure is given as a SMILES string. Where only a bound is given, the exact number is not on record here.

Consider `CC(C)C(CCc1ccc(Cl)c(Cl)c1)NC(=O)c1ccn(C)c(=O)c1O` (single isomer, unassigned) [Example 114, N-(1-(3,4-dichlorophenyl)-4-methylpentan-3-yl)-3-hydroxy-1-methyl-2-oxo-1,2-dihydropyridine-4-carboxamide], for which the IC50 amounted to 6860 nM. The same measure for `CC(C)C(CCc1ccc(Cl)c(Cl)c1)NC(=O)c1ccn(C)c(=O)c1O` (single isomer, unassigned) [Example 115, N-(1-(3,4-dichlorophenyl)-4-methylpentan-3-yl)-3-hydroxy-1-methyl-2-oxo-1,2-dihydropyridine-4-carboxamide]: 1790 nM. To `Cn1ccc(C(=O)NC(CCc2ccc(Cl)c(Cl)c2)C2CC2)c(O)c1=O` (single isomer, unassigned) [Example 118, N-(1-cyclopropyl-3-(3,4-dichlorophenyl)propyl)-3-hydroxy-1-methyl-2-oxo-1,2-dihydropyridine-4-carboxamide] belongs 2700 nM.

Take `Cn1ccc(C(=O)NC(CCc2ccc(Cl)c(Cl)c2)C2CC2)c(O)c1=O` (single isomer, unassigned) [Example 119, N-(1-cyclopropyl-3-(3,4-dichlorophenyl)propyl)-3-hydroxy-1-methyl-2-oxo-1,2-dihydropyridine-4-carboxamide]: the IC50 was determined as 1620 nM. As for `Cn1ccc(C(=O)NC(CCc2ccc(Cl)c(Cl)c2)c2ccccc2)c(O)c1=O` (single isomer, unassigned) [Example 120, N-(3-(3,4-dichlorophenyl)-1-phenylpropyl)-3-hydroxy-1-methyl-2-oxo-1,2-dihydropyridine-4-carboxamide], the 50% inhibitory concentration (IC50) was 167 nM. To `Cn1c(-c2cc(F)cc(C(F)(F)F)c2)cc(C(=O)NCCCc2ccc(Cl)c(Cl)c2)c(O)c1=O` [Example 7, N-(3-(3,4-dichlorophenyl)propyl)-6-(3-fluoro-5-(trifluoromethyl)phenyl)-3-hydroxy-1-methyl-2-oxo-1,2-dihydropyridine-4-carboxamide] belongs < 10 nM. With `Cn1c(-c2ccc(Cl)c(C(F)(F)F)c2)cc(C(=O)NCCCc2ccc(Cl)c(Cl)c2)c(O)c1=O` [Example 8, 6-(4-chloro-3-(trifluoromethyl)phenyl)-N-(3-(3,4-dichlorophenyl)propyl)-3-hydroxy-1-methyl-2-oxo-1,2-dihydropyridine-4-carboxamide], the concentration for half-maximal inhibition (IC50) is < 10 nM. In the case of `Cn1c(-c2cc(F)cc(F)c2)cc(C(=O)NCCCc2ccc(Cl)c(Cl)c2)c(O)c1=O` [Example 19, N-(3-(3,4-dichlorophenyl)propyl)-6-(3,5-difluorophenyl)-3-hydroxy-1-methyl-2-oxo-1,2-dihydropyridine-4-carboxamide], the IC50 was < 10 nM.

Take `Cn1c(-c2cccc(C(=O)O)c2)cc(C(=O)NCCCc2ccc(Cl)c(Cl)c2)c(O)c1=O` [Example 45, 3-(4-(3-(3,4-dichlorophenyl)propylcarbamoyl)-5-hydroxy-1-methyl-6-oxo-1,6-dihydropyridin-2-yl)benzoic acid]: the IC50 was determined as 199 nM. To `Cn1c(-c2cc(F)cc(C(F)(F)F)c2)cc(C(=O)NCCCOc2ccccc2Cl)c(O)c1=O` [Example 48, N-(3-(2-chlorophenoxy)propyl)-6-(3-fluoro-5-(trifluoromethyl)phenyl)-3-hydroxy-1-methyl-2-oxo-1,2-dihydropyridine-4-carboxamide] belongs < 10 nM. With `COc1ccc(CCNC(=O)c2cc(-c3cc(F)cc(C(F)(F)F)c3)n(C)c(=O)c2O)cc1` [Example 51, 6-(3-fluoro-5-(trifluoromethyl)phenyl)-3-hydroxy-N-(4-methoxyphenethyl)-1-methyl-2-oxo-1,2-dihydropyridine-4-carboxamide], the IC50 worked out at 178 nM. In the case of `Cn1c(-c2cc(F)cc(C(F)(F)F)c2)cc(C(=O)NCCc2cccc(C(F)(F)F)c2)c(O)c1=O` [Example 56, 6-(3-fluoro-5-(trifluoromethyl)phenyl)-3-hydroxy-1-methyl-2-oxo-N-(3-(trifluoromethyl)phenethyl)-1,2-dihydropyridine-4-carboxamide], the IC50 was found to be 216 nM. On to `Cn1c(-c2cc(F)cc(C(F)(F)F)c2)cc(C(=O)NCCc2ccc(C(F)(F)F)cc2)c(O)c1=O` [Example 60, 6-(3-fluoro-5-(trifluoromethyl)phenyl)-3-hydroxy-1-methyl-2-oxo-N-(4-(trifluoromethyl)phenethyl)-1,2-dihydropyridine-4-carboxamide], for which the IC50 is 198 nM.

On to `Cn1c(-c2cc(F)cc(C(F)(F)F)c2)cc(C(=O)NCCCOc2ccc(F)cc2)c(O)c1=O` [Example 64, 6-(3-fluoro-5-(trifluoromethyl)phenyl)-N-(3-(4-fluorophenoxy)propyl)-3-hydroxy-1-methyl-2-oxo-1,2-dihydropyridine-4-carboxamide], for which the IC50 was < 10 nM. To `COC(=O)c1cccc(OCCCNC(=O)c2cc(-c3cc(F)cc(C(F)(F)F)c3)n(C)c(=O)c2O)c1` [Example 71, methyl 3-(3-(6-(3-fluoro-5-(trifluoromethyl)phenyl)-3-hydroxy-1-methyl-2-oxo-1,2-dihydropyridine-4-carboxamido)propoxy)benzoate] belongs < 10 nM; to `Cn1c(-c2cc(F)cc(C(F)(F)F)c2)cc(C(=O)NCCCOc2ccc(Cl)c(Cl)c2)c(O)c1=O` [Example 77, N-(3-(3,4-dichlorophenoxy)propyl)-6-(3-fluoro-5-(trifluoromethyl)phenyl)-3-hydroxy-1-methyl-2-oxo-1,2-dihydropyridine-4-carboxamide], < 10 nM.

Turning to `Cn1c(-c2cc(F)cc(C(F)(F)F)c2)cc(C(=O)NCCCOc2ccccc2[N+](=O)[O-])c(O)c1=O` [Example 81, 6-(3-fluoro-5-(trifluoromethyl)phenyl)-3-hydroxy-1-methyl-N-(3-(2-nitrophenoxy)propyl)-2-oxo-1,2-dihydropyridine-4-carboxamide], the IC50 is < 10 nM. To `Cn1c(C(F)(F)F)cc(C(=O)NCCCOc2ccccc2Cl)c(O)c1=O` [Example 88, N-(3-(2-chlorophenoxy)propyl)-3-hydroxy-1-methyl-2-oxo-6-(trifluoromethyl)-1,2-dihydropyridine-4-carboxamide] belongs < 10 nM. For the compound `Cn1c(C(F)(F)F)cc(C(=O)NCCCOc2ccccc2C(F)(F)F)c(O)c1=O` [Example 89, 3-hydroxy-1-methyl-2-oxo-6-(trifluoromethyl)-N-(3-(2-(trifluoromethyl)phenoxy)propyl)-1,2-dihydropyridine-4-carboxamide], the IC50 is < 10 nM. To `COc1c(C(=O)NCCCc2ccc(Cl)c(Cl)c2)ccn(C)c1=O` [Example 113, N-(3-(3,4-dichlorophenyl)propyl)-3-methoxy-1-methyl-2-oxo-1,2-dihydropyridine-4-carboxamide] belongs 5820 nM; to `CC(CCc1ccccc1)NC(=O)c1ccn(C)c(=O)c1O` (centres unmarked) [Example 126, 3-hydroxy-1-methyl-2-oxo-N-(4-phenylbutan-2-yl)-1,2-dihydropyridine-4-carboxamide], 2460 nM; to `Cn1ccc(C(=O)NCCc2ccccc2Cl)c(O)c1=O` [Example 127, N-(2-chlorophenethyl)-3-hydroxy-1-methyl-2-oxo-1,2-dihydropyridine-4-carboxamide], 8660 nM. The same measure for `COc1ccc(CCNC(=O)c2ccn(C)c(=O)c2O)cc1` [Example 128, 3-hydroxy-N-(4-methoxyphenethyl)-1-methyl-2-oxo-1,2-dihydropyridine-4-carboxamide]: 6620 nM.

For orientation: IC50 means the concentration that gives 50% inhibition.
